Experimental findings from US7160888B2, “[1,8]naphthyridin-2-ones and related compounds for the treatment of schizophrenia” (Warner Lambert Company LLC, priority 2003, dated 2007) are described below.

In one test the target is D2 receptor (Homo sapiens, UniProt P14416). The experiment in a line: [3H]Thymidine uptake assay for D2 intrinsic activity. The class given is cell-based. The arrangement: Emax: dose or concentration left out as unconfirmed. As to conditions: Table 1; test compound 1 μM; 1 μM Quinpirole = 100% intrinsic activity.
D2 receptor, sequence (P14416 whole entry): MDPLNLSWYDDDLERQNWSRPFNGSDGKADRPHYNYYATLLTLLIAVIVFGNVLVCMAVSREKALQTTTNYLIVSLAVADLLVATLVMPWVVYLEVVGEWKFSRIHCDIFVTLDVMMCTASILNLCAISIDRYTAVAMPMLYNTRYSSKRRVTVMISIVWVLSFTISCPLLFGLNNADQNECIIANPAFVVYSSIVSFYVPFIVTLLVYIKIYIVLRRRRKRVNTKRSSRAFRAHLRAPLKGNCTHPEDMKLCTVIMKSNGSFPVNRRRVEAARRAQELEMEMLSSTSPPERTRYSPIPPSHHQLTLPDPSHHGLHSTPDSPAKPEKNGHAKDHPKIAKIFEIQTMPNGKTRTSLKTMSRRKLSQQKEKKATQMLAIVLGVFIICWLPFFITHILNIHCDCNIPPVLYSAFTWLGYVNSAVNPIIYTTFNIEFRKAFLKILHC
In turn, `O=c1ccc2cnc(OCCCCN3CCN(c4cccc5ccccc45)CC3)nc2[nH]1` [Example H4, 2-[4-(4-Naphthalen-1-yl-piperazin-1-yl)-butoxy]-8H-pyrido[2,3-d]pyrimidin-7-one] came in with an Emax at 1 µM of 38%.
`Cc1nc(OCCCCN2CCN(c3cccc4ccccc34)CC2)nc2[nH]c(=O)c(F)cc12` [Example H5, 6-Fluoro-4-methyl-2-[4-(4-naphthalen-1-yl-piperazin-1-yl)-butoxy]-8H-pyrido[2,3-d]pyrimidin-7-one] yielded an Emax at 1 µM of 34%.
Still for that read-out and setting: with `Cc1nc(OCCCCN2CCN(c3cccc(C(C)C)n3)CC2)nc2[nH]c(=O)ccc12` [Example H6, 2-{4-[4-(6-Isopropyl-pyridin-2-yl)-piperazin-1-yl]-butoxy}-4-methyl-8H-pyrido[2,3-d]pyrimidin-7-one] the figure was 42%; with `CCc1cccc(N2CCN(CCCCOc3nc(C)c4ccc(=O)[nH]c4n3)CC2)n1` [Example H7, 2-{4-[4-(6-Ethyl-pyridin-2-yl)-piperazin-1-yl]-butoxy}-4-methyl-8H-pyrido[2,3-d]pyrimidin-7-one], 46%.
Same read-out and setting: with `Cc1nc(OCCCCN2CCN(c3cccc4ccc(F)cc34)CC2)nc2[nH]c(=O)ccc12` [Example H10, 2-{4-[4-(7-Fluoro-naphthalen-1-yl)-piperazin-1-yl]-butoxy}-4-methyl-8H-pyrido[2,3-d]pyrimidin-7-one] the figure was 44%; with `COc1ccc2cccc(N3CCN(CCCCOc4nc(C)c5ccc(=O)[nH]c5n4)CC3)c2c1` [Example H11, 2-{4-[4-(7-Methoxy-naphthalen-1-yl)-piperazin-1-yl]-butoxy}-4-methyl-8H-pyrido[2,3-d]pyrimidin-7-one], 23%.
The same measure, in the same setting: the figure for `Cc1nc(OCCCCN2CCN(c3cccc4ccccc34)CC2)nc2[nH]c(=O)ccc12` [Example H12, 4-Methyl-2-[4-(4-naphthalen-1-yl-piperazin-1-yl)-butoxy]-8H-pyrido[2,3-d]pyrimidin-7-one] is 34%.
`Cc1nc(OCCCCN2CCN(c3cccc4ccc(F)cc34)CC2)nc2c1ccc(=O)n2C` [Example H13, 2-{4-[4-(7-Fluoro-naphthalen-1-yl)-piperazin-1-yl]-butoxy}-4,8-dimethyl-8H-pyrido[2,3-d]pyrimidin-7-one]: the Emax at 1 µM was found to be 36%.
`COc1ccc2cccc(N3CCN(CCCCOc4nc(C)c5ccc(=O)n(C)c5n4)CC3)c2c1` [Example H14, 2-{4-[4-(7-Methoxy-naphthalen-1-yl)-piperazin-1-yl]-butoxy}-4,8-dimethyl-8H-pyrido[2,3-d]pyrimidin-7-one] came in with an Emax at 1 µM of 33%.
On the same count and under the same terms, with `O=C1CCc2cnc(CCCCCN3CCN(c4cccc(Cl)c4Cl)CC3)cc2N1` [Example I1, 7-{5-[4-(2,3-Dichloro-phenyl)-piperazin-1-yl]-pentyl}-3,4-dihydro-1H-[1,6]naphthyridin-2-one] the figure was 17%; with `O=C1CCc2cnc(OCCCCN3CCN(c4cccc5c4CCCC5)CC3)cc2N1` [Example I2, 7-{4-[4-(5,6,7,8-Tetrahydro-naphthalen-1-yl)-piperazin-1-yl]-butoxy}-3,4-dihydro-1H-[1,6]naphthyridin-2-one], 37%.
In the case of `O=C1CCc2cnc(OCCCCN3CCN(c4cccc5ccccc45)CC3)cc2N1` [Example I3, 7-[4-(4-Naphthalen-1-yl-piperazin-1-yl)-butoxy]-3,4-dihydro-1H-[1,6]naphthyridin-2-one], the Emax at 1 µM is 33%.
Turning to `O=C1CCc2cnc(OCCCCN3CCN(c4cccc5c4CCC5)CC3)cc2N1` [Example I5, 7-[4-(4-Indan-4-yl-piperazin-1-yl)-butoxy]-3,4-dihydro-1H-[1,6]naphthyridin-2-one], the Emax at 1 µM came to 23%.
The same measure, in the same setting: the figure for `O=C1CCc2cnc(OCCCCN3CCN(c4cccc5ccccc45)CC3)c(Br)c2N1` [Example I7, 8-Bromo-7-[4-(4-naphthalen-1-yl-piperazin-1-yl)-butoxy]-3,4-dihydro-1H-[1,6]naphthyridin-2-one] is 37%; for `O=C1CCc2cnc(OCCCCN3CCN(c4cccc(Cl)c4Cl)CC3)c(Br)c2N1` [Example I8, 8-Bromo-7-{4-[4-(2,3-dichloro-phenyl)-piperazin-1-yl]-butoxy}-3,4-dihydro-1H-[1,6]naphthyridin-2-one] it is 25%.
The same measure, in the same setting: with `O=C1CCc2cnc(OCCCCN3CCN(c4cccc(Cl)c4Cl)CC3)c(Cl)c2N1` [Example I9, 8-Chloro-7-{4-[4-(2,3-dichloro-phenyl)-piperazin-1-yl]-butoxy}-3,4-dihydro-1H-[1,6]naphthyridin-2-one] the figure was 19%.
On the same count and under the same terms, the figure for `O=C1CCc2cnc(OCCCCN3CCN(c4cccc5ccccc45)CC3)c(Cl)c2N1` [Example I10, 8-Chloro-7-[4-(4-naphthalen-1-yl-piperazin-1-yl)-butoxy]-3,4-dihydro-1H-[1,6]naphthyridin-2-one] is 21%.

Still in this test, the particulars now being: Table 2; test compound 1 μM; 1 μM Quinpirole = 100% intrinsic activity.
As to `O=C1CCc2cnc(OCCCCN3CCN(c4cccc5c4OC(F)(F)C(F)(F)O5)CC3)cc2N1` [Example H3′, 7-{4-[4-(2,2,3,3-Tetrafluoro-2,3-dihydro-benzo[1,4]dioxin-5-yl)-piperazin-1-yl]-butoxy}-3,4-dihydro-1H-[1,6]naphthyridin-2-one], the Emax at 1 µM stood at 22%.
Still for that read-out and setting: the figure for `O=C1CCc2cnc(OCCCCN3CCN(c4cccc5c4OC(F)(F)O5)CC3)cc2N1` [Example H4′, 7-{4-[4-(2,2-Difluoro-benzo[1,3]dioxol-4-yl)-piperazin-1-yl]-butoxy}-3,4-dihydro-1H-[1,6]naphthyridin-2-one] is 21%; for `O=C1CCc2cnc(OCCCCN3CCN(c4cccc5c4OCCO5)CC3)cc2N1` [Example H5′, 7-{4-[4-(2,3-Dihydro-benzo[1,4]dioxin-5-yl)-piperazin-1-yl]-butoxy}-3,4-dihydro-1H-[1,6]naphthyridin-2-one] it is 14%.
Still for that read-out and setting: the figure for `O=c1ccc2cnc(OCCCCN3CCN(c4cccc5c4OCC5)CC3)cc2[nH]1` [Example H6′, 7-{4-[4-(2,3-Dihydro-benzofuran-7-yl)-piperazin-1-yl]-butoxy}-1H-[1,6]naphthyridin-2-one] is 21%.
On the same count and under the same terms, with `O=c1ccc2cnc(OCCCCN3CCN(c4cccc5c4OCCO5)CC3)cc2[nH]1` [Example H7′, 7-{4-[4-(2,3-Dihydro-benzo[1,4]dioxin-5-yl)-piperazin-1-yl]-butoxy}-1H-[1,6]naphthyridin-2-one] the figure was 17%; with `O=c1ccc2cnc(OCCCCN3CCN(c4cccc5c4OCCC5)CC3)cc2[nH]1` [Example H8′, 7-[4-(4-Chroman-8-yl-piperazin-1-yl)-butoxy]-1H-[1,6]naphthyridin-2-one], 32%.
In turn, `O=c1ccc2cnc(OCCCCN3CCN(c4cccc5c4OC(F)(F)O5)CC3)cc2[nH]1` [Example H9′, 7-{4-[4-(2,2-Difluoro-benzo[1,3]dioxol-4-yl)-piperazin-1-yl]-butoxy}-1H-[1,6]naphthyridin-2-one] had an Emax at 1 µM of 31%.

The same test, now with this note: read-out: D2 Intrinsic Activity (%).
Turning to `O=C1CCc2cnc(OCCCCN3CCN(c4cccc5ccc(F)cc45)CC3)cc2N1` [Example I6, 7-{4-[4-(7-Fluoro-naphthalen-1-yl)-piperazin-1-yl]-butoxy}-3,4-dihydro-1H-[1,6]naphthyridin-2-one], the Emax is 24%.
